# Measured values taken from patent publication US10561712B2, “Treatment of cancer and inhibition of metastasis using hemoglobin beta subunit” (UNIVERSITY OF MARYLAND, BALTIMORE, priority 2014, dated 2020).
# How the values were obtained:
# [1] = test system: HPEC (Human pulmonary endothelial cells); assay: Viability of normal cells, HPEC; type: cell-based; details: normal lung-residing cell line, data not shown
# Source text: The influence of HBB on the viability of the normal lung-residing cell lines HPEC (Human pulmonary endothelial cells) and HLMEC (Human lung microvascular endothelial cells) and on the normal kidney cell line 293T and 293A was examined as well.
# [2] = test system: MacroNB cells; assay: Trypan blue exclusion assay, MacroNB cells; type: cell-based, human; details: incubation with HBB, results not shown
# Description: Neuroblastoma cells were seeded (3×10^4 per well) in a 96-well flat-bottomed tissue culture plate. After an incubation of 24 hr, cells were washed and incubated with the relevant factors (detailed in the following sections) diluted in starvation medium (RPMI-1640 containing 5% bovine serum albumin (BSA); Biological Industries, Kibbutz Beit Haemek, Israel; Sigma-Aldrich). Cell viability under normal conditions (starvation medium containing BSA) or after incubation with the relevant factors was monitored after 72 hr using an XTT (XTT cell proliferation kit; Biological Industries) or MTS-based (CellTiter 96® AQueous One Solution Cell Proliferation Assay; Promega) viability assays according to manufacturer instructions. Cells were also counted using the trypan-blue exclusion assay to verify the results obtained by XTT and MTS-based viability assays.
# The HBB-mediated inhibitory activity was dose dependent (results not shown).
# [3] = test system: ERK1/2 phosphorylation in MacroNB cells; assay: ERK1/2 phosphorylation (western blot), MacroNB cells; type: cell-based, human; details: HBB (1 μg) for 48 hr; in reference to total ERK2; FIG. 4A
# Description: Lysates of neuroblastoma cells and of mouse organs were resolved on SDS-PAGE after the addition of Laemmli sample buffer, and transferred onto nitrocellulose membrane. The total amount of protein in the lanes was assessed by Ponceau staining prior to blocking of the membrane. The membrane was blocked at room temperature with 3% BSA (Sigma-Aldrich) diluted in TBS-Tween (TBST) for 1 hr. For detection of the target proteins, membranes were incubated with relevant primary antibodies (see “Antibodies”), then washed 3 times×5 min with TBSTX1 and incubated with suitable HRP-conjugated secondary antibodies (see “Antibodies”). Membranes were washed again 5 times×3 min with TBSTX1. The bands were visualized by chemiluminescence-ECL reactions and autoradiography by exposure to Fuji film. The amount of the relevant protein in the lanes was estimated by densitometry using Scion Image software (Scion, Frederick, Md., USA).
# Neuroblastoma cells (5×10^6) were plated and after 24 hr the growth medium was replaced with starvation medium (RPMI 0.5% FCS) for 24 hr. […] ERK1/2 phosphorylation was calculated in reference to total ERK2 protein, p38 and TAK1 phosphorylation was calculated in reference to total p38 and TAK1, respectively, as measured by densitometry using Scion Image software (Scion). […]
# [4] = test system: MicroNB cells; assay: Cell cycle analysis by flow cytometry, MicroNB cells; type: cell-based, human; details: HBB (1 μg) for 48 hr
# Description: Neuroblastoma cells (5×10^5) were plated and after 24 hr, cells were incubated for 48 hr with HBB diluted in starvation medium (RPMI 5% BSA) to a concentration of 10 μg/ml. Neuroblastoma cells incubated with starvation medium containing BSA alone served as control. Cells were pelleted, washed and resuspended in 0.5 ml PBSX1, containing 0.05 ml propidium iodide (PI) (P-4170, Sigma) (50 μg/ml), and 0.05 ml Triton X-100 (Sigma-Aldrich). Flow cytometry analysis was performed using Becton Dickinson FACSort and CellQuest software (Becton Dickinson, Mountain View, Calif.).
# The cells were also subjected to measurement of cellular DNA content and cell cycle analysis using flow cytometry. Incubation with human HBB elevated the amount of MicroNB and MacroNB cells in the sub GO phase, by 18% and 11%, respectively (data not shown).
# [5] = test system: Cyclin D1 expression in MicroNB cells; assay: Cyclin D1 expression (western blot), MicroNB cells; type: cell-based; details: incubated with human HBB, 48 hr; in reference to beta-tubulin; FIG. 4C
# Description: (§1) Lysates of neuroblastoma cells and of mouse organs were resolved on SDS-PAGE after the addition of Laemmli sample buffer, and transferred onto nitrocellulose membrane. The total amount of protein in the lanes was assessed by Ponceau staining prior to blocking of the membrane. The membrane was blocked at room temperature with 3% BSA (Sigma-Aldrich) diluted in TBS-Tween (TBST) for 1 hr. For detection of the target proteins, membranes were incubated with relevant primary antibodies (see “Antibodies”), then washed 3 times×5 min with TBSTX1 and incubated with suitable HRP-conjugated secondary antibodies (see “Antibodies”). Membranes were washed again 5 times×3 min with TBSTX1. […]
# (§2) Neuroblastoma cells (5×10^6) were plated and after 24 hr cells were incubated for 48 hr with human HBB diluted in starvation medium (RPMI 5% BSA) to a concentration of 10 μg/ml. […] Cyclin D1 expression was calculated in reference to β-tubulin expression in the lane as measured by densitometry using Scion Image software (Scion).
# (§3) Whole cell lysates of MicroNB and MacroNB cells incubated with human HBB were subjected to western blot analysis and immunostaining. […] Cyclin D1 expression was calculated in reference to beta-tubulin. […] Significance was evaluated using Student's t-test for each analysis after incubation with HBB compared to incubation with control media.
# [6] = test system: Cyclin D1 expression in MacroNB cells; assay: Cyclin D1 expression (western blot), MacroNB cells; type: cell-based; details: incubated with human HBB, 48 hr; in reference to beta-tubulin; FIG. 4C
# Description: as §1, §2, §3
substance,measurement,setting,value
"HBB: beta subunit of human hemoglobin, 147 amino acids, SEQ ID NO:2, HPLC-purified from native human hemoglobin",influence on the viability of normal cells,[1],did not influence the viability
same,non-viable MacroNB cells following incubation,[2],8%
same,ERK phosphorylation in MacroNB cells,[3],decreased
same,elevation of the amount of MicroNB cells in G0-G1 phase,[4]; FIG. 4B,59%
same,elevation of the amount of MicroNB cells in the sub G0 phase,[4]; data not shown,18%
same,Cyclin-D1 expression in MicroNB cells,[5],significant decline
same,Cyclin-D1 expression in MacroNB cells,[6],significant decline
